Data published in patent US20090029992A1, “SUBSTITUTED PYRAZOLE COMPOUNDS” (priority 2007, published 2009).

Experiments:
Format in all cases: biochemical
[1] = biological target: T1, N-terminal His-tagged human Src (Homo sapiens, UniProt P12931); test: Src kinase inhibition assay (33P-ATP filter assay)
T1 construct: His (N); purchased Upstate USA Inc, 706 Forest Street, Charlottesville, Va

[2] = biological target: T2, N-terminal GST-tagged recombinant human Flt3, residues 564-end (Homo sapiens, UniProt P36888); test: Flt3 kinase inhibition assay (33P-ATP filter assay); settings: 40 minutes at room temperature
T2 construct: recombinant human Flt3, residues 564-end; GST (N); purchased Upstate USA Inc, 706 Forest Street, Charlottesville, Va
T2 sequence (P36888 564-993 limits assumed): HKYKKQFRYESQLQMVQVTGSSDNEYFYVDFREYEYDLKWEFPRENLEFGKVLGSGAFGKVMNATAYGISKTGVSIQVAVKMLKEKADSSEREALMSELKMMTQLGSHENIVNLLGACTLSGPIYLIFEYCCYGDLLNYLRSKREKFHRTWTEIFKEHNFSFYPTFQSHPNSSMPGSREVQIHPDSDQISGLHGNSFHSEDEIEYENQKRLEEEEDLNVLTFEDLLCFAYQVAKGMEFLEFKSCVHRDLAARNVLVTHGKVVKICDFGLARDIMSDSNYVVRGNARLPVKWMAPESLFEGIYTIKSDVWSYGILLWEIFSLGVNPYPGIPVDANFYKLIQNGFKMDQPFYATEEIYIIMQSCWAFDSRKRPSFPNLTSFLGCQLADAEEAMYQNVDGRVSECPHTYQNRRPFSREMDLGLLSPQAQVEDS
Method in brief: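 Serial compound dilutions incubated 40 min at room temperature with 5-10 mU Flt3 kinase, 50 μM peptide substrate and [γ-33P]ATP/10 mM magnesium acetate, pH 7.0. Phosphoric acid stop, filter capture and scintillation counting; activity compared with uninhibited reactions.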

[3] = biological target: T3, N-terminal His6-tagged recombinant human KDR, residues 790-end (Homo sapiens, UniProt P35968); test: KDR kinase inhibition assay (33P-ATP filter assay)
T3 construct: recombinant human KDR, residues 790-end; His6 (N); purchased Upstate USA Inc, 706 Forest Street, Charlottesville, Va
Method in brief: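 Radiometric filter assay: reaction started with Mg acetate (10 mM)/[γ-33P]ATP mix, run 40 min at room temperature in 8 mM MOPS pH 7.0 with 0.2 mM EDTA, MBP substrate (0.33 mg/mL) and recombinant KDR 790-end (5-10 mU). Phosphate incorporation by scintillation counting of P30 filtermats, compared with uninhibited reactions.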

[4] = group with IC50 greater than 100 nM

T1 sequence (P12931 whole entry): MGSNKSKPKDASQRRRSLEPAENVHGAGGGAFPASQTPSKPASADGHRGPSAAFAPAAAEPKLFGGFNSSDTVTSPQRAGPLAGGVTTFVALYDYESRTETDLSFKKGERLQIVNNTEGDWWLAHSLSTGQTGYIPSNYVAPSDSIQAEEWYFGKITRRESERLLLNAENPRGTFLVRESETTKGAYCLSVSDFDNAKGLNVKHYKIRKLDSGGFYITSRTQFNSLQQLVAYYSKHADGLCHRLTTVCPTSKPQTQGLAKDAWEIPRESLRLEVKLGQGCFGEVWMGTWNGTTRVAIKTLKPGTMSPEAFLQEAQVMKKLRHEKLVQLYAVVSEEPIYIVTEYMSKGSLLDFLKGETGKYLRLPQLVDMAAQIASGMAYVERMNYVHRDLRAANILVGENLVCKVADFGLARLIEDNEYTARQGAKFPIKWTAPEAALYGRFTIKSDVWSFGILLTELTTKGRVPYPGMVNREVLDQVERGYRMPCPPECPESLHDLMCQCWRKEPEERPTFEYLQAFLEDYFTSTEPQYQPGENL
T3 sequence (P35968 790-1356 limits assumed): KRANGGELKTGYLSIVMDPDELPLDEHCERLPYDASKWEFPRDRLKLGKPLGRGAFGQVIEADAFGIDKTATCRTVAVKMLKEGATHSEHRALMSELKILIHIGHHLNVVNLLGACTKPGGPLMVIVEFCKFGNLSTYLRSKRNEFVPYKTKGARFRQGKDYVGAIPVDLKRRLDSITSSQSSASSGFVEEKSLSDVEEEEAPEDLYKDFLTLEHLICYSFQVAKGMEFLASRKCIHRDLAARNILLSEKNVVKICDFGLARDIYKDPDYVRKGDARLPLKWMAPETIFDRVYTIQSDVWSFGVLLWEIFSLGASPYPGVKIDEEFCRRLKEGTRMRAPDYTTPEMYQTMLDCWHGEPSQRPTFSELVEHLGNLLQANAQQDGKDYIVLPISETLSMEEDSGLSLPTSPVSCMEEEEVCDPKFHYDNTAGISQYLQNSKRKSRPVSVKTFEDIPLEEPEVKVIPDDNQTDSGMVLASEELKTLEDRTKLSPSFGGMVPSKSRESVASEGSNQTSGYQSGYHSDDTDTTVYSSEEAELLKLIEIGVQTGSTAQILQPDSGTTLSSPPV

Structure (SMILES) | IC50 ([1]; 40 minutes at room temperature) [nM] | IC50 [2] [nM] | IC50 ([3]; 40 minutes at room temperature) [nM] | IC50 [1, 4] [nM] | IC50 [3, 4] [nM]
COC(=O)c1cccc(-c2nc(Nc3cc(C)[nH]n3)cc(N3CCN(C)CC3)n2)c1 [Example 166, methyl 3-(4-(5-methyl-1H-pyrazol-3-ylamino)-6-(4-methylpiperazin-1-yl)pyrimidin-2-yl)benzoate] | ≤ 100 | ≤ 100 | ≤ 100 | – | –
Cc1cc(Nc2cc(N3CCN(C)CC3)nc(-c3cccc(Cl)c3)n2)n[nH]1 [Compound 36, 2-(3-chlorophenyl)-N-(5-methyl-1H-pyrazol-3-yl)-6-(4-methylpiperazin-1-yl)pyrimidin-4-amine] | ≤ 100 | ≤ 100 | ≤ 100 | – | –
Cc1cccc(-c2nc(Nc3cc(C)[nH]n3)cc(N(C)CCN(C)C)n2)c1 [Compound 52, N^4-(2-(dimethylamino)ethyl)-N^4-methyl-N^6-(5-methyl-1H-pyrazol-3-yl)-2-m-tolylpyrimidine-4,6-diamine] | – | ≤ 100 | – | ≤ 1000 | ≤ 1000
COc1cccc(-c2nc(Nc3cc(C)[nH]n3)cc(NC3CCOCC3)n2)c1 [Compound 29, 2-(3-methoxyphenyl)-N^4-(5-methyl-1H-pyrazol-3-yl)-N^6-(tetrahydro-2H-pyran-4-yl)pyrimidine-4,6-diamine] | ≤ 100 | ≤ 100 | ≤ 100 | – | –
Cc1cc(Nc2cc(NC3CCOCC3)nc(-c3cc4ccccc4n3C)n2)n[nH]1 [Compound 7, N^4-(tetrahydro-2H-pyran-4-yl)-2-(1-methyl-1H-indol-2-yl)-N^6-(5-methyl-1H-pyrazol-3-yl)pyrimidine-4,6-diamine] | – | ≤ 100 | – | ≤ 1000 | ≤ 1000
Cc1cc(Nc2cc(N3CCN(C)CC3)nc(-c3ccccc3Cl)n2)n[nH]1 [Compound 37, 2-(2-chlorophenyl)-N-(5-methyl-1H-pyrazol-3-yl)-6-(4-methylpiperazin-1-yl)pyrimidin-4-amine] | ≤ 100 | ≤ 100 | ≤ 100 | – | –
Cc1cc(Nc2cc(N3CCN(C)CC3)nc(-c3cccc4ccccc34)n2)n[nH]1 [Example 134, N-(5-methyl-1H-pyrazol-3-yl)-6-(4-methylpiperazin-1-yl)-2-(naphthalen-1-yl)pyrimidin-4-amine] | ≤ 100 | ≤ 100 | ≤ 100 | – | –
Cc1cc(Nc2cc(N(C)CCN(C)C)nc(-c3cccc4ccoc34)n2)n[nH]1 [Example 205, 2-(benzofuran-7-yl)-N^4-(2-(dimethylamino)ethyl)-N^4-methyl-N^6-(5-methyl-1H-pyrazol-3-yl)pyrimidine-4,6-diamine] | – | ≤ 100 | – | ≤ 1000 | ≤ 1000
Cc1ccc(C)c(-c2nc(Nc3cc(C)[nH]n3)cc(N3CCN(C)CC3)n2)c1 [Example 201, 2-(2,5-dimethylphenyl)-N-(5-methyl-1H-pyrazol-3-yl)-6-(4-methylpiperazin-1-yl)pyrimidin-4-amine] | – | ≤ 100 | – | ≤ 1000 | ≤ 1000
Cc1cc(Nc2cc(N3CCN(C)CC3)nc(-c3ccc(N(C)C)cc3)n2)n[nH]1 [Compound 85, 2-(4-(dimethylamino)prenyl)-N-(b-methyl-1H-pyrazol-3-yl)-6-(4-methylpiperazin-1-yl)pyrimidin-4-amine] | ≤ 100 | ≤ 100 | ≤ 100 | – | –
Cc1cc(Nc2cc(N3CCC(O)CC3)nc(-c3cc4ccccc4n3C)n2)n[nH]1 [Compound 3, 1-(6-(5-methyl-1H-pyrazol-3-ylamino)-2-(1-methyl-1H-indol-2-yl)pyrimidin-4-yl)piperidin-4-ol] | ≤ 100 | ≤ 100 | ≤ 100 | – | –
Cc1cc(Nc2cc(N(C)CCN(C)C)nc(-c3cc4ccccc4n3C)n2)n[nH]1 [Compound 4, N^4-(2-(dimethylamino)ethyl)-N^4-methyl-2-(1-methyl-1H-indol-2-yl)-N^6-(5-methyl-1H-pyrazol-3-yl)pyrimidine-4,6-diamine] | ≤ 100 | ≤ 100 | – | – | ≤ 1000
Cc1ccc(F)c(-c2nc(Nc3cc(C)[nH]n3)cc(N3CCN(C)CC3)n2)c1 [Example 193, 2-(2-fluoro-5-methylphenyl)-N-(5-methyl-1H-pyrazol-3-yl)-6-(4-methylpiperazin-1-yl)pyrimidin-4-amine] | ≤ 100 | ≤ 100 | ≤ 100 | – | –
Cc1cc(Nc2cc(N3CCN(C)CC3)nc(-c3cccc(C)c3C)n2)n[nH]1 [Example 179, 2-(2,3-dimethylphenyl)-N-(5-methyl-1H-pyrazol-3-yl)-6-(4-methylpiperazin-1-yl)pyrimidin-4-amine] | – | ≤ 100 | ≤ 100 | ≤ 1000 | –
Cc1cc(Nc2cc(NCCN3CCN(C)CC3)nc(-c3ccccc3)n2)n[nH]1 [Compound 13, N^4-(5-methyl-1H-pyrazol-3-yl)-N^6-(2-(4-methylpiperazin-1-yl)ethyl)-2-phenylpyrimidine-4,6-diamine] | – | ≤ 100 | ≤ 100 | ≤ 1000 | –
Cc1cc(Nc2cc(N3CCN(C)CC3)nc(-c3cc(F)ccc3C)n2)n[nH]1 [Example 196, 2-(5-fluoro-2-methylphenyl)-N-(5-methyl-1H-pyrazol-3-yl)-6-(4-methylpiperazin-1-yl)pyrimidin-4-amine] | ≤ 100 | ≤ 100 | ≤ 100 | – | –
Cc1cc(Nc2cc(N(C)CCN(C)C)nc(-c3cccc(Cl)c3)n2)n[nH]1 [Compound 49, 2-(3-chlorophenyl)-N^4-(2-(dimethylamino)ethyl)-N^4-methyl-N^6-(5-methyl-1H-pyrazol-3-yl)pyrimidine-4,6-diamine] | ≤ 100 | ≤ 100 | ≤ 100 | – | –
Cc1cc(Nc2cc(NC3CCOCC3)nc(-c3ccc(F)cc3)n2)n[nH]1 [Compound 19, 2-(4-fluorophenyl)-N^4-(5-methyl-1H-pyrazol-3-yl)-N^6-(tetrahydro-2H-pyran-4-yl)pyrimidine-4,6-diamine] | – | ≤ 100 | – | ≤ 1000 | ≤ 1000
COCCN(C)c1cc(Nc2cc(C)[nH]n2)nc(-c2ccc3c(c2)OCO3)n1 [Example 153, 2-(benzo[d][1,3]dioxol-5-yl)-N^4-(2-methoxyethyl)-N^4-methyl-N^6-(5-methyl-1H-pyrazol-3-yl)pyrimidine-4,6-diamine] | – | ≤ 100 | – | ≤ 1000 | ≤ 1000
Cc1cc(Nc2cc(NC3CCOCC3)nc(-c3cc4ccccc4o3)n2)n[nH]1 [Compound 15, 2-(benzofuran-2-yl)-N^4-(tetrahydro-2H-pyran-4-yl)-N^6-(5-methyl-1H-pyrazol-3-yl)-pyrimidine-4,6-diamine] | ≤ 100 | ≤ 100 | ≤ 100 | – | –
Cc1cc(Nc2cc(NC3CCOCC3)nc(-c3cccc4ccoc34)n2)n[nH]1 [Example 204, 2-(benzofuran-7-yl)-N^4-(5-methyl-1H-pyrazol-3-yl)-N^6-(tetrahydro-2H-pyran-4-yl)pyrimidine-4,6-diamine] | – | ≤ 100 | – | ≤ 1000 | ≤ 1000
Cc1cc(Nc2cc(N3CCN(C)CC3)nc(-c3cccc(F)c3F)n2)n[nH]1 [Example 200] | ≤ 100 | ≤ 100 | ≤ 100 | – | –
Cc1cc(Nc2cc(NC3CCOCC3)nc(-c3ccc4c(c3)OCCO4)n2)n[nH]1 [Example 130, 2-(2,3-dihydrobenzo[b][1,4]dioxin-6-yl)-N^4-(5-methyl-1H-pyrazol-3-yl)-N^6-(tetrahydro-2H-pyran-4-yl)pyrimidine-4,6-diamine] | ≤ 100 | ≤ 100 | – | – | ≤ 1000
COc1ccc(-c2nc(Nc3cc(C)[nH]n3)cc(N3CCN(C)CC3)n2)cc1 [Compound 41, 2-(4-methoxyphenyl)-N-(5-methyl-1H-pyrazol-3-yl)-6-(4-methylpiperazin-1-yl)pyrimidin-4-amine] | ≤ 100 | ≤ 100 | ≤ 100 | – | –
Cc1cc(Nc2cc(N3CCN(C)CC3)nc(-c3ccc4c(c3)OC(F)(F)O4)n2)n[nH]1 [Example 178, 2-(2,2-difluorobezo[d][1,3]dioxol-5-yl)-N-(5-methyl-1H-pyrazol-3-yl)-6-(4-methylpiperazin-1-yl)pyrimidin-4-amine] | ≤ 100 | ≤ 100 | – | – | ≤ 1000
CCOc1cccc(-c2nc(Nc3cc(C)[nH]n3)cc(N3CCN(C)CC3)n2)c1 [Example 190, 2-(3-ethoxyphenyl)-N-(5-methyl-1H-pyrazol-3-yl)-6-(4-methylpiperazin-1-yl)pyrimidin-4-amine] | ≤ 100 | ≤ 100 | ≤ 100 | – | –
Cc1cc(Nc2cc(NC3CCOCC3)nc(-c3ccccc3)n2)n[nH]1 [Compound 12, N^4-(tetrahydro-2H-pyran-4-yl)-N^6-(5-methyl-1H-pyrazol-3-yl)-2-phenylpyrimidine-4,6-diamine] | ≤ 100 | ≤ 100 | ≤ 100 | – | –
